Results as given in US6900233B2, “Substituted 3-phenyl-5-alkoxy-3H-(1,3,4)-oxadiazol-2-ones, pharmaceutical composition and method for treating obesity thereof” (Aventis Pharma Deutschland GmbH, priority 2002, dated 2005).

Target: T1, pancreatic lipase (PL) (Sus scrofa, UniProt P00591)
T1 construct: Enriched preparation from porcine pancreas; purchased Sigma L-0382; host or cells: porcine pancreas (tissue preparation)
T1 sequence (P00591 1-450): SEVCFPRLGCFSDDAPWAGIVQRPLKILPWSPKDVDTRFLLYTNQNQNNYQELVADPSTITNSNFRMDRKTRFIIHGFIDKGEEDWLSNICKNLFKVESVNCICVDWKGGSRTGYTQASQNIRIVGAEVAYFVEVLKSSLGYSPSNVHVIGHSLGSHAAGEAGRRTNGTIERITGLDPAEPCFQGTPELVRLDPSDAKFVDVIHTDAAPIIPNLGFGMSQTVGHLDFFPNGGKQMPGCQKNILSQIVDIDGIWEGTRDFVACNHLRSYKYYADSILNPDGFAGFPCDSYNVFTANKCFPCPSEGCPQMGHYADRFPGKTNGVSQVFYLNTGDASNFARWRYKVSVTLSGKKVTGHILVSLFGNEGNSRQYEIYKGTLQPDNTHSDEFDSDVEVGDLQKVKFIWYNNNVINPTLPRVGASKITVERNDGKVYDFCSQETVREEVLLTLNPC
Assay: Pancreatic lipase enzyme assay (release of radiolabeled oleate from tripalmitin/glycerol tri[3H]oleate substrate)
Assay type: biochemical
Settings: enriched preparation from porcine pancreas, 30° C., 30 min, up to 8 concentrations
Procedure: The effect of the compounds according to the invention of formula 1 was tested using the following enzyme assay system: [lacuna]
The activity of the compounds was assayed as follows:
1. Preparation of the Substrate:
80 μL of tripalmitin (85 mM in chloroform) are mixed with 5 μL of glycerol tri[9,10(n)-^3H]oleate (5 mCi/mL in toluene) in a 12 mL polypropylene vessel. Evaporation in a rotary evaporator (50° C.) and addition of 4 mL of 200 mM Tris/HCl (pH 7.6), 0.8% TX-100 are followed by ultrasound treatment of the mixture (Branson B-12 sonifier, output level 4, 3×2 min with 1 min intervals on ice) until a homogeneous milky suspension is produced.
Lipase buffer: 80 mM Tris/HCl (pH 7.6), 600 mM NaCl, 8 mM CaCl2, 8 mM benzamidine, 2 mM Pefabloc (Roche Biochemicals) (add the inhibitors only on the day of the assay)
Pancreatic lipase: Enriched preparation from porcine pancreas (Sigma order No. L-0382) dissolved in lipase buffer (100 000 units/500 μL)
5 μL of test substance (in 100% DMSO) or DMSO (control) are mixed with 10 μL of substrate and 5 μL of lipase (in this sequence) and incubated at 30° C. (Eppendorf Thermomixer, 350 min^−1) for 30 min. After addition of 325 μL of methanol/chloroform/n-heptane (10/9/7) and 105 μl of 0.1 M K2CO3, 0.1 M H3BO3 (pH 10.5 adjusted with 1 M KOH) and vigorous mixing, the phases are separated by centrifugation (8000 rpm, Eppendorf centrifuge, 4° C.). 140 μL portions of the aqueous supernatant (contains the liberated radiolabeled oleate; 70% recovery) are transferred into 20 mL scintillation vials and mixed with 6 mL of scintillation cocktail (Beckman ReadySafe). After vigorously mixing and incubating at room temperature for 2 h, the radioactivity is measured in a liquid scintillation counter (Beckman, L8008, tritium channel with quench curve, measurement time 20 min).
Substances are routinely tested in each concentration in three independent incubation mixtures each with duplicate determination after phase separation (SD<0.02). Background values (reaction under the same conditions but without lipase) are subtracted from all values (corresponds predominantly to the content of glycerol trioleate or free oleate in the substrate preparation in the aqueous phase, <5% of the radioactivity employed). The inhibition of the pancreatic lipase enzymatic activity by a test substance is determined by comparison with an uninhibited control reaction (presence of lipase=0% inhibition; absence of lipase 100% inhibition in each case after background correction). The IC50 is calculated from an inhibition plot with up to 8 concentrations of the test substance. The software package GRAPHIT (Elsevier-BIOSOFT) is used for curve fitting and IC50 determination.
With `CCCCCCCCCCCCOc1nn(-c2ccc(OC(F)(F)F)cc2)c(=O)o1` [Example 1, 5-Dodecyloxy-3-(4-trifluoromethoxy-phenyl)-3H-(1,3,4)-oxadiazol-2-one] the IC50 was 30 nM.
For `CCCCCCCCCCCCCCCCOc1nn(-c2ccc(OC(F)(F)F)cc2)c(=O)o1` [Example 2, 5-Hexadecyloxy-3-(4-trifluoromethoxy-phenyl)-3H-(1,3,4)-oxadiazol-2-one], the IC50 was 250 nM.
In the case of `CCCCCCCCOc1nn(-c2ccc(OC(F)(F)F)cc2)c(=O)o1` [Example 3, 5-Octyloxy-3-(4-trifluoromethoxy-phenyl)-3H-(1,3,4)-oxadiazol-2-one], the IC50 is reported as 350 nM.
`CCCCCCCCCCCCCCCCOc1nn(-c2cccc(OC(F)(F)F)c2)c(=O)o1` [Example 4, 5-Hexadecyloxy-3-(3-trifluoromethoxy-phenyl)-3H-(1,3,4)-oxadiazol-2-one] gave an IC50 of 2500 nM.
In the case of `CCCCCCCCCCCCCCCCOc1nn(-c2ccc(Oc3ccc(Cl)cc3)cc2)c(=O)o1` [Example 5, 5-Hexadecyloxy-3-(4-(4-chlorophenoxy)-phenyl)-3H-(1,3,4)-oxadiazol-2-one], the IC50 is reported as 2000 nM.
In the case of `CCCCCCCCOc1nn(-c2ccccc2)c(=O)o1` [Example 6, 5-Octyloxy-3-phenyl-3H-(1,3,4)-oxadiazol-2-one], the IC50 is reported as 900 nM.
With `CCCCCCCCCCCOc1nn(-c2ccc(OC(F)(F)F)cc2)c(=O)o1` [Example 15, 5-Undecyloxy-3-(4-trifluoromethoxy-phenyl)-3H-(1,3,4)-oxadiazol-2-one] the IC50 was 600 nM.

System: not given
Assay: not given
Settings: not given
Work on `CC(C)CCC[C@@H](C)[C@H]1CC[C@H]2[C@@H]3CCC4C[C@@H](Oc5nn(-c6ccc(OC(F)(F)F)cc6)c(=O)o5)CC[C@]4(C)[C@H]3CC[C@]12C` (some centres unmarked) yielded a melting point of 127 °C.
For `CCCCCCCCCCCCCCCCOc1nn(-c2ccc(OC(F)(F)F)cc2)c(=O)o1` [Example 2, 5-Hexadecyloxy-3-(4-trifluoromethoxy-phenyl)-3H-(1,3,4)-oxadiazol-2-one], the melting point was 56 °C.
With `CCCCCCCCCCCCCCCCOc1nn(-c2cccc(OC(F)(F)F)c2)c(=O)o1` [Example 4, 5-Hexadecyloxy-3-(3-trifluoromethoxy-phenyl)-3H-(1,3,4)-oxadiazol-2-one] the melting point was 53 °C.
`CCCCCCCCCCCCCCCCOc1nn(-c2ccc(Oc3ccc(Cl)cc3)cc2)c(=O)o1` [Example 5, 5-Hexadecyloxy-3-(4-(4-chlorophenoxy)-phenyl)-3H-(1,3,4)-oxadiazol-2-one] showed a melting point of 52 °C.
`CCCCCCCCOc1nn(-c2ccccc2)c(=O)o1` [Example 6, 5-Octyloxy-3-phenyl-3H-(1,3,4)-oxadiazol-2-one] showed a melting point of 38 °C.
`CCCCCCCCCCCCCCCCOc1nn(-c2cccc(F)c2)c(=O)o1` [Example 8, 5-Hexadecyloxy-3-(3-fluoro-phenyl)-3H-(1,3,4)-oxadiazol-2-one] gave a melting point of 58 °C.
In the case of `CCCCCCCCCCCCCCCCOc1nn(-c2cccc(OCc3ccccc3)c2)c(=O)o1` [Example 9, 5-Hexadecyloxy-3-(3-benzyloxy-phenyl)-3H-(1,3,4)-oxadiazol-2-one], the melting point is reported as 65 °C.
With `CCCCCCCCCCCCCCCCOc1nn(-c2ccccc2)c(=O)o1` [Example 10, 5-Hexadecyloxy-3-phenyl-3H-(1,3,4)-oxadiazol-2-one] the melting point was 63 °C.
For `CCCCCCCCCCCCCCCCOc1nn(-c2ccc([N+](=O)[O-])cc2)c(=O)o1` [Example 11, 5-Hexadecyloxy-3-(4-nitro-phenyl)-3H-(1,3,4)-oxadiazol-2-one], the melting point was 72 °C.
With `CCCCCCCCCCCCCCCCOc1nn(-c2ccc(OC)cc2)c(=O)o1` [Example 12, 5-Hexadecyloxy-3-(4-methoxy-phenyl)-3H-(1,3,4)-oxadiazol-2-one] the melting point was 66 °C.
`CCCCCCCCCCCCCCCCOc1nn(-c2ccc(OCc3ccccc3)cc2)c(=O)o1` [Example 13, 5-Hexadecyloxy-3-(4-benzyloxy-phenyl)-3H-(1,3,4)-oxadiazol-2-one] gave a melting point of 73 °C.
Compound `CCCCCCCCCCCOc1nn(-c2ccc(OC(F)(F)F)cc2)c(=O)o1` [Example 15, 5-Undecyloxy-3-(4-trifluoromethoxy-phenyl)-3H-(1,3,4)-oxadiazol-2-one] has a melting point of 38 °C.
`CCCCCCCCCCCCCCOc1nn(-c2ccc(OC(F)(F)F)cc2)c(=O)o1` [Example 16, 5-Tetradecyloxy-3-(4-trifluoromethoxy-phenyl)-3H-(1,3,4)-oxadiazol-2-one] gave a melting point of 46 °C.
For `CCCCCCCCCCCCCOc1nn(-c2ccc(OC(F)(F)F)cc2)c(=O)o1` [Example 17, 5-Tridecyloxy-3-(4-trifluoromethoxy-phenyl)-3H-(1,3,4)-oxadiazol-2-one], the melting point was 50 °C.
For `O=c1oc(OCCc2ccc(F)cc2)nn1-c1ccc(OC(F)(F)F)cc1` [Example 21, 5-(2-(4-Fluorophenyl)-ethoxy)-3-(4-trifluoromethoxy-phenyl)-3H-(1,3,4)-oxadiazol-2-one], the melting point was 60 °C.
`CCCCCCCCCCCCCCCCCCCCCCOCCOc1nn(-c2ccc(OC(F)(F)F)cc2)c(=O)o1` [Example 25, 5-(Docosyloxy-ethoxy)-3-(4-trifluoromethoxy-phenyl)-3H-(1,3,4)-oxadiazol-2-one] showed a melting point of 71 °C.
With `CCCCCCCCCCCCOc1nn(-c2ccc(OC(F)(F)F)cc2)c(=O)o1` [Example 29, 5-(Dodecyloxy)-3-(4-trifluoromethoxy-phenyl)-3H-(1,3,4)-oxadiazol-2-one] the melting point was 41 °C.
For `CCCCCCCCCCCCOc1nn(-c2ccc(Cl)c(Cl)c2)c(=O)o1` [Example 30, 5-(Dodecyloxy)-3-(3,4-dichloro-phenyl)-3H-(1,3,4)-oxadiazol-2-one], the melting point was 74 °C.
With `CCCCCCCCCCCCOc1nn(-c2cc(Cl)cc(Cl)c2)c(=O)o1` [Example 31, 5-(Dodecyloxy)-3-(3,5-dichloro-phenyl)-3H-(1,3,4)-oxadiazol-2-one] the melting point was 48 °C.
Work on `CCCCCCCCCCCCOc1nn(-c2cccc(OC)c2)c(=O)o1` [Example 32, 5-(Dodecyloxy)-3-(3-methoxy-phenyl)-3H-(1,3,4)-oxadiazol-2-one] yielded a melting point of 51 °C.
`CCCCCCCCCCCCOc1nn(-c2ccc(OC)cc2)c(=O)o1` [Example 33, 5-(Dodecyloxy)-3-(4-methoxy-phenyl)-3H-(1,3,4)-oxadiazol-2-one] showed a melting point of 57 °C.
With `CCCCCCCCCCCCOc1nn(-c2cccc([N+](=O)[O-])c2)c(=O)o1` [Example 34, 5-(Dodecyloxy)-3-(3-nitro-phenyl)-3H-(1,3,4)-oxadiazol-2-one] the melting point was 64 °C.
`CCCCCCCCCCCCOc1nn(-c2cccc(C(F)(F)F)c2)c(=O)o1` [Example 35, 5-(Dodecyloxy)-3-(3-trifluoromethyl-phenyl)-3H-(1,3,4)-oxadiazol-2-one] showed a melting point of 43 °C.
Compound `CCCCCCCCCCCCOc1nn(-c2ccc(OCc3ccccc3)cc2)c(=O)o1` [Example 37, 5-(Dodecyloxy)-3-(4-benzyloxy-phenyl)-3H-(1,3,4)-oxadiazol-2-one] has a melting point of 65 °C.
`CCCCCCCCCCCCOc1nn(-c2cccc(F)c2)c(=O)o1` [Example 38, 5-(Dodecyloxy)-3-(3-fluoro-phenyl)-3H-(1,3,4)-oxadiazol-2-one] showed a melting point of 44 °C.
For `CCCCCCCCCCCCOc1nn(-c2ccc([N+](=O)[O-])c(OCc3ccc(F)cc3)c2)c(=O)o1` [Example 39, 5-(Dodecyloxy)-3-(3-(4-fluorobenzyloxy)-4-nitro-phenyl)-3H-(1,3,4)-oxadiazol-2-one], the melting point was 71 °C.
With `CCCCCCCCCCCCOc1nn(-c2ccc([N+](=O)[O-])cc2C)c(=O)o1` [Example 40, 5-(Dodecyloxy)-3-(2-methyl-4-nitro-phenyl)-3H-(1,3,4)-oxadiazol-2-one] the melting point was 63 °C.
`CCCCCCCCCCCCOc1nn(-c2ccc([N+](=O)[O-])c(C)c2)c(=O)o1` [Example 41, 5-(Dodecyloxy)-3-(3-methyl-4-nitro-phenyl)-3H-(1,3,4)-oxadiazol-2-one] showed a melting point of 62 °C.
